What was measured:
serotonin 4 receptor [1] = biological target: T1, serotonin 4 receptor (Cavia porcellus, UniProt O70528); assay: Serotonin 4 receptor stimulating activity: twitch responses of electrically stimulated ileum longitudinal muscle strips; assay type: cell-based, guinea pig (Hartley); conditions: for EC50: twitch responses, guinea pig ileum longitudinal muscle strips, cumulative additions of agonist, read-out: ED50 of the serotonin 4 receptor stimulating activity
T1 construct: from tissue; host or cells: ileum longitudinal muscle strips of Hartley guinea pig
Text: Experiment 1. Serotonin 4 Receptor Stimulating Activity Compounds Tested
Twitch responses were examined in longitudinal muscle strips of guinea pig by a modification of the method described in The Journal of Pharmacology and Experimental Therapeutics, 252, 1378, 1990.
From Hartley guinea pigs, a section of ileum 25 cm in length and proximal to the ileocecal junction was removed. The longitudinal muscle strips obtained from two segments of ileum about 4 cm each in length were used for this experiment. The longitudinal muscle strips were suspended in Krebs' solution at 32° to 34° C. and bubbled with 95% O2 and 5% CO2 under a load of about 0.8 g. Twitch responses were recorded under electrical stimulation of 0.2 Hz, 1 msec pulse duration, using force displacement transducers. The longitudinal muscle strips, stimulated at supramaximal voltage, were allowed to equilibrate for about an hour. […] The test was carried out by exposing the strips to cumulative additions of agonist at least at 45-minute intervals.

serotonin 4 receptor [2] = conditions: Alimentary Pharmacology and Therapeutics, 6, 273, 1992; cited from earlier work
[3] = test system: gastrointestinal motor functions; conditions: Alimentary Pharmacology and Therapeutics, 6, 273, 1992; cited from earlier work

T1 sequence (O70528 whole entry): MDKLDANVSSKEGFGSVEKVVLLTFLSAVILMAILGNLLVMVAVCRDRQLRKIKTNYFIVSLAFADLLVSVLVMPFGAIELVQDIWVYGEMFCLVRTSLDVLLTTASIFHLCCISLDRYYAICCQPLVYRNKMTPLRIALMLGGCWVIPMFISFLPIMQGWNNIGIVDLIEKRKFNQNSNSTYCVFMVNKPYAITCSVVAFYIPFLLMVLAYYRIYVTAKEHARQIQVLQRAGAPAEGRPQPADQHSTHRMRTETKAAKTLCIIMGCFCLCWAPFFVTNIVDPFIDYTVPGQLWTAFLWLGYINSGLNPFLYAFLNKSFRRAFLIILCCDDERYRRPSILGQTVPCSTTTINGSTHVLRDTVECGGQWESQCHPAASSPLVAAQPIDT

SMILES | EC50 (serotonin 4 receptor [1]) [µM] | further results
NCCc1c[nH]c2ccc(O)cc12 [5-hydroxytryptamine (5-HT), 5-hydroxytryptamine] |  | enhancement of twitch responses (serotonin 4 receptor [1]; 10^-8 M): twitch responses were enhanced
COc1cc(N)c(Cl)cc1C(=O)NC1CCN(CCCOc2ccc(F)cc2)CC1OC (centres unmarked) [Cisapride] |  | stimulation of serotonin 4 receptor (serotonin 4 receptor [2]): stimulants of serotonin 4 receptor; effect on gastrointestinal motor functions and conditions [3]: accelerate gastrointestinal motor functions and improve gastrointestinal conditions
CCn1c(=O)c(C(=O)N[C@H]2C[C@H]3CC[C@@H](C2)N3C)cc2ccccc21 [Compound 2] | 0.138 | 
CCCn1c(=O)c(C(=O)N[C@H]2C[C@H]3CC[C@@H](C2)N3C)cc2ccccc21 [Compound 3] | 0.413 | 
CCCCn1c(=O)c(C(=O)N[C@H]2C[C@H]3CC[C@@H](C2)N3C)cc2ccccc21 [Compound 4] | > 3 | 
CC(C)Cn1c(=O)c(C(=O)N[C@H]2C[C@H]3CC[C@@H](C2)N3C)cc2ccccc21 [Compound 5] | 0.974 | 
CN1[C@@H]2CC[C@H]1C[C@@H](NC(=O)c1cc3ccccc3[nH]c1=O)C2 [Compound 6] | > 3 | 
CCCCn1c(=O)c(C(=O)N[C@H]2C[C@H]3CC[C@@H](C2)N3C)c(O)c2ccccc21 [Compound 7] | > 3 | 
COc1cc(N)c(Cl)cc1C(=O)NC1CCN2CCCC1C2 (centres unmarked) [renzapride] |  | stimulation of serotonin 4 receptor (serotonin 4 receptor [2]): stimulants of serotonin 4 receptor; effect on gastrointestinal motor functions and conditions [3]: accelerate gastrointestinal motor functions and improve gastrointestinal conditions

Reference: US5571820A, “Heterocyclic compound” (Taisho Pharmaceutical Co., Ltd., priority 1992, dated 1996)
